According to US12391648B2, “Pyridyloxy thioester derivative and preparation method therefor, herbicidal composition, and application” (Qingdao Kingagroot Chemical Compound Co., Ltd., priority 2018, dated 2025):

Test system: Abutilon theophrasti
Test: Post-emergence test experiment (Table 3, 1000 g/ha)
Type: in vivo
Settings: post-emergence spray, after 3 weeks, fresh weight inhibition
How it was run: (§1)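 Activity graded levels 0-5 by fresh-weight inhibition (level 5 above 85%, level 0 below 5%), assessed 3 weeks after treatment. Plants grown in greenhouse pots were sprayed post-emergence at 2-3 leaves using acetone/tween-80 solutions with methyl oleate synergist (1.5 L/ha).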

Compound	Activity level (growth inhibition rate) Abutilon theophrasti
CC(Oc1nc(F)c(Cl)c(N)c1Cl)C(=O)SC(F)(F)F (stereo not drawn) [Compound 75]	5 (Level 5: the growth inhibition rate is greater than 85%)
CC(Oc1nc(F)c(Cl)c(N)c1Cl)C(=O)Sc1ccc2ccccc2c1 (stereo not drawn) [Compound 114]	5 (Level 5: the growth inhibition rate is greater than 85%)
CCCCCCC(C)SC(=O)C(C)Oc1nc(F)c(Cl)c(N)c1Cl (stereo not drawn) [Compound 135]	5 (Level 5: the growth inhibition rate is greater than 85%)
CC(C)=NSC(=O)C(C)Oc1nc(F)c(Cl)c(N)c1Cl (stereo not drawn) [Compound 102]	5 (Level 5: the growth inhibition rate is greater than 85%)
CCC(C)SC(=O)C(C)Oc1nc(F)c(Cl)c(N)c1Cl (stereo not drawn) [Compound 69]	5 (Level 5: the growth inhibition rate is greater than 85%)
CSC(=O)C(C)Oc1nc(F)c(C(F)(F)F)c(N)c1Cl (stereo not drawn) [Compound 15]	5 (Level 5: the growth inhibition rate is greater than 85%)
CC(Oc1nc(F)c(Cl)c(N)c1Cl)C(=O)SCC(C)(C)C (stereo not drawn) [Compound 148]	5 (Level 5: the growth inhibition rate is greater than 85%)

Test system: Galium spurium
Test: as above
Type: in vivo
Settings: post-emergence spray, after 3 weeks, fresh weight inhibition
How it was run: as §1

Compound	Activity level (growth inhibition rate) Galium spurium
CC(Oc1nc(F)c(Cl)c(N)c1Cl)C(=O)SC(F)(F)F (stereo not drawn) [Compound 75]	5 (Level 5: the growth inhibition rate is greater than 85%)
CC(Oc1nc(F)c(Cl)c(N)c1Cl)C(=O)Sc1ccc2ccccc2c1 (stereo not drawn) [Compound 114]	5 (Level 5: the growth inhibition rate is greater than 85%)
CCCCCCC(C)SC(=O)C(C)Oc1nc(F)c(Cl)c(N)c1Cl (stereo not drawn) [Compound 135]	5 (Level 5: the growth inhibition rate is greater than 85%)
CC(C)=NSC(=O)C(C)Oc1nc(F)c(Cl)c(N)c1Cl (stereo not drawn) [Compound 102]	5 (Level 5: the growth inhibition rate is greater than 85%)
CCC(C)SC(=O)C(C)Oc1nc(F)c(Cl)c(N)c1Cl (stereo not drawn) [Compound 69]	5 (Level 5: the growth inhibition rate is greater than 85%)
CSC(=O)C(C)Oc1nc(F)c(C(F)(F)F)c(N)c1Cl (stereo not drawn) [Compound 15]	5 (Level 5: the growth inhibition rate is greater than 85%)
CC(Oc1nc(F)c(Cl)c(N)c1Cl)C(=O)SCC(C)(C)C (stereo not drawn) [Compound 148]	5 (Level 5: the growth inhibition rate is greater than 85%)

Test system: Monochoria vaginalis
Test: as above
Type: in vivo
Settings: post-emergence spray, after 3 weeks, fresh weight inhibition
How it was run: as §1

Compound	Activity level (growth inhibition rate) Monochoria Vaginalis
CC(Oc1nc(F)c(Cl)c(N)c1Cl)C(=O)SC(F)(F)F (stereo not drawn) [Compound 75]	5 (Level 5: the growth inhibition rate is greater than 85%)
CC(Oc1nc(F)c(Cl)c(N)c1Cl)C(=O)Sc1ccc2ccccc2c1 (stereo not drawn) [Compound 114]	5 (Level 5: the growth inhibition rate is greater than 85%)
CCCCCCC(C)SC(=O)C(C)Oc1nc(F)c(Cl)c(N)c1Cl (stereo not drawn) [Compound 135]	5 (Level 5: the growth inhibition rate is greater than 85%)
CC(C)=NSC(=O)C(C)Oc1nc(F)c(Cl)c(N)c1Cl (stereo not drawn) [Compound 102]	5 (Level 5: the growth inhibition rate is greater than 85%)
CCC(C)SC(=O)C(C)Oc1nc(F)c(Cl)c(N)c1Cl (stereo not drawn) [Compound 69]	5 (Level 5: the growth inhibition rate is greater than 85%)
CSC(=O)C(C)Oc1nc(F)c(C(F)(F)F)c(N)c1Cl (stereo not drawn) [Compound 15]	5 (Level 5: the growth inhibition rate is greater than 85%)
CC(Oc1nc(F)c(Cl)c(N)c1Cl)C(=O)SCC(C)(C)C (stereo not drawn) [Compound 148]	5 (Level 5: the growth inhibition rate is greater than 85%)

Test system: Leptochloa chinensis
Test: as above
Type: in vivo
Settings: post-emergence spray, after 3 weeks, fresh weight inhibition
How it was run: as §1

Compound	Activity level (growth inhibition rate) Leptochloa chinensis
CC(Oc1nc(F)c(Cl)c(N)c1Cl)C(=O)SC(F)(F)F (stereo not drawn) [Compound 75]	5 (Level 5: the growth inhibition rate is greater than 85%)
CC(Oc1nc(F)c(Cl)c(N)c1Cl)C(=O)Sc1ccc2ccccc2c1 (stereo not drawn) [Compound 114]	5 (Level 5: the growth inhibition rate is greater than 85%)
CCCCCCC(C)SC(=O)C(C)Oc1nc(F)c(Cl)c(N)c1Cl (stereo not drawn) [Compound 135]	5 (Level 5: the growth inhibition rate is greater than 85%)
CC(C)=NSC(=O)C(C)Oc1nc(F)c(Cl)c(N)c1Cl (stereo not drawn) [Compound 102]	5 (Level 5: the growth inhibition rate is greater than 85%)
CCC(C)SC(=O)C(C)Oc1nc(F)c(Cl)c(N)c1Cl (stereo not drawn) [Compound 69]	5 (Level 5: the growth inhibition rate is greater than 85%)
CSC(=O)C(C)Oc1nc(F)c(C(F)(F)F)c(N)c1Cl (stereo not drawn) [Compound 15]	5 (Level 5: the growth inhibition rate is greater than 85%)
CC(Oc1nc(F)c(Cl)c(N)c1Cl)C(=O)SCC(C)(C)C (stereo not drawn) [Compound 148]	5 (Level 5: the growth inhibition rate is greater than 85%)

Test system: Setaria viridis
Test: as above
Type: in vivo
Settings: post-emergence spray, after 3 weeks, fresh weight inhibition
How it was run: as §1

Compound	Activity level (growth inhibition rate) Setaria viridis
CC(Oc1nc(F)c(Cl)c(N)c1Cl)C(=O)SC(F)(F)F (stereo not drawn) [Compound 75]	5 (Level 5: the growth inhibition rate is greater than 85%)
CC(Oc1nc(F)c(Cl)c(N)c1Cl)C(=O)Sc1ccc2ccccc2c1 (stereo not drawn) [Compound 114]	5 (Level 5: the growth inhibition rate is greater than 85%)
CCCCCCC(C)SC(=O)C(C)Oc1nc(F)c(Cl)c(N)c1Cl (stereo not drawn) [Compound 135]	5 (Level 5: the growth inhibition rate is greater than 85%)
CC(C)=NSC(=O)C(C)Oc1nc(F)c(Cl)c(N)c1Cl (stereo not drawn) [Compound 102]	5 (Level 5: the growth inhibition rate is greater than 85%)
CCC(C)SC(=O)C(C)Oc1nc(F)c(Cl)c(N)c1Cl (stereo not drawn) [Compound 69]	5 (Level 5: the growth inhibition rate is greater than 85%)
CSC(=O)C(C)Oc1nc(F)c(C(F)(F)F)c(N)c1Cl (stereo not drawn) [Compound 15]	5 (Level 5: the growth inhibition rate is greater than 85%)
CC(Oc1nc(F)c(Cl)c(N)c1Cl)C(=O)SCC(C)(C)C (stereo not drawn) [Compound 148]	5 (Level 5: the growth inhibition rate is greater than 85%)

Test system: Digitaria sanguinalis
Test: as above
Type: in vivo
Settings: post-emergence spray, after 3 weeks, fresh weight inhibition
How it was run: as §1

Compound	Activity level (growth inhibition rate) Digitaria sanguinalis
CC(Oc1nc(F)c(Cl)c(N)c1Cl)C(=O)SC(F)(F)F (stereo not drawn) [Compound 75]	5 (Level 5: the growth inhibition rate is greater than 85%)
CC(Oc1nc(F)c(Cl)c(N)c1Cl)C(=O)Sc1ccc2ccccc2c1 (stereo not drawn) [Compound 114]	5 (Level 5: the growth inhibition rate is greater than 85%)
CCCCCCC(C)SC(=O)C(C)Oc1nc(F)c(Cl)c(N)c1Cl (stereo not drawn) [Compound 135]	5 (Level 5: the growth inhibition rate is greater than 85%)
CC(C)=NSC(=O)C(C)Oc1nc(F)c(Cl)c(N)c1Cl (stereo not drawn) [Compound 102]	5 (Level 5: the growth inhibition rate is greater than 85%)
CCC(C)SC(=O)C(C)Oc1nc(F)c(Cl)c(N)c1Cl (stereo not drawn) [Compound 69]	5 (Level 5: the growth inhibition rate is greater than 85%)
CSC(=O)C(C)Oc1nc(F)c(C(F)(F)F)c(N)c1Cl (stereo not drawn) [Compound 15]	5 (Level 5: the growth inhibition rate is greater than 85%)
CC(Oc1nc(F)c(Cl)c(N)c1Cl)C(=O)SCC(C)(C)C (stereo not drawn) [Compound 148]	5 (Level 5: the growth inhibition rate is greater than 85%)
